Columns and labels:
[1] = system: ERBB2; assay: ERBB2 (HER2) flow cytometry protein degradation assay in BT-474 cells; format: cell-based, human; details: DC50, BT-474 cells, 24 hr
Procedure: To analyze total ERBB2 expression by flow cytometry, cells were detached with trypsin, washed, counted and treated with 10 μl/10^6 cells PE-conjugated, anti-ERBB2 monoclonal antibody (R&D Systems, #FAB1129P) for 30 min at 25° C. in dark. Cells were then washed, resuspended in 200 μl 1% paraformaldehyde and analyzed by flow cytometry.
% Inhibition=100−(D−B)/(S−B)*100%. • S: Fluorescence intensity of cells with antibody • D: Fluorescence intensity of compound-treated cells with antibody • B: Fluorescence intensity of cells without antibody

[2] = system: MV-4-11 human acute myeloid leukemia; assay: MV-4-11 CCK-8 proliferation assay; format: cell-based; details: Homo sapiens, MV4-11; MV-4-11 cells, 72 hr
How it was run: (§1)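 CCK-8 absorbance read-out, with inhibition expressed against DMSO-treated cells after subtracting a cell-free DMSO medium blank. Compounds tested over a 3-fold dilution series spanning 20 μM to 1.02 nM; lines grown essentially as ATCC recommends.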

[3] = system: U-87 MG human glioblastoma; assay: U87 MG CCK-8 proliferation assay; format: cell-based; details: Homo sapiens, U-87 MG, 72 h, U-87 MG cells, read-out: U87MG CCK-8
How it was run: as §1

[4] = molecular target: T1, HSP90α protein (Homo sapiens, UniProt P07900); assay: HSP90α-binding FP (BODIPY) assay; details: FP competition with BODIPY-labeled RNK04010
T1 construct: purchased BPS Bioscience #50298
How it was run: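 Fluorescence polarization measured competition with N-terminal human HSP90α, using either FITC-geldanamycin or BODIPY-labelled triazolone RNK04010 as tracer (5 nM final each). Compounds were tested in 2.5-fold dilutions from 20 μM to 5.2 nM, with incubation at 25 °C for 120 min (FITC) or 300 min (BODIPY).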

[5] = molecular target: MAPK7 (Homo sapiens, UniProt Q13164); assay: MAPK7 Western blot protein degradation assay in U-87 MG cells; format: cell-based; parameters: U-87 MG human glioblastoma cells, which express MAPK7; endogenous in cells; host or cells: U-87 MG; details: 48 hr
Chain of MAPK7 (Q13164 whole entry): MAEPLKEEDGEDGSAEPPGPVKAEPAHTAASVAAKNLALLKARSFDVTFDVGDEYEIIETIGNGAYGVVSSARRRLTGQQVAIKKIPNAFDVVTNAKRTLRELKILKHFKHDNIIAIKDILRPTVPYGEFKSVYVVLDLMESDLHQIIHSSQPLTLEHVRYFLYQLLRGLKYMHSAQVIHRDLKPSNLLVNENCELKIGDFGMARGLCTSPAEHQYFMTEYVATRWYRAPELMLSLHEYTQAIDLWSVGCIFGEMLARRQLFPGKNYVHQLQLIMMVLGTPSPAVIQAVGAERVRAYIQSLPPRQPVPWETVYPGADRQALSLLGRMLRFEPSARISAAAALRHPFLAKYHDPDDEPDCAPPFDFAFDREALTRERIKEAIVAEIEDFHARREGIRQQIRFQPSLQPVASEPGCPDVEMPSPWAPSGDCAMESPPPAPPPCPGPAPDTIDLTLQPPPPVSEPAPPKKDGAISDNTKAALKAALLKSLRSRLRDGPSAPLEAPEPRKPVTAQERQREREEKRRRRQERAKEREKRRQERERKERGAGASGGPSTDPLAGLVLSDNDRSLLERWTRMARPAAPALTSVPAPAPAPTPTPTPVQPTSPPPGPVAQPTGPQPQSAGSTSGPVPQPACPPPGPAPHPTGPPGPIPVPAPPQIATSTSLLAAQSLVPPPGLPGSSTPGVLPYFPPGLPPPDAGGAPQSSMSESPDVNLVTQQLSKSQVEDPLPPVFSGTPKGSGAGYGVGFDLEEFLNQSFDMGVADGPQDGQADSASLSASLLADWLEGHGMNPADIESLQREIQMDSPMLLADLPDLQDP
Procedure: U-87 MG human glioblastoma cells were seeded in 6- or 12-well tissue culture plates, and after 1 hr, test compounds were added at various concentrations and incubated at 37° C./5% CO2 for 48 hr. Cells were then washed with cold PBS, aspirated and cold RIPA buffer containing a protease/phosphatase inhibitor cocktail was added to lyse cells. After centrifugation, the total protein concentrations of cell lysates were determined using the BCA protein assay. Samples were normalized for equivalent protein concentrations, 5×SDS-PAGE loading buffer added and denatured at 100° C. for 10 min. 20 μl of each sample/well was loaded on a SDS-PAGE gel and electrophoresed for 20 min at 80 V, then 120 V for 1.5 hr. Gels were then electroblotted to nitrocellulose membranes using a wet-transfer method at 250 mA for 2.5 hr. Membranes were incubated with blocking buffer for 1 hr and washed 3 times with TBST for 5 min. Membranes were then incubated with anti-MAPK7 (anti-ERK5; Cell Signaling Technology, #12950) and anti-3-Actin (Cell Signaling Technology, #3700) monoclonal antibodies diluted in blocking buffer at 4° C. overnight per the manufacturer's recommendations. After washing 3 times, blots were incubated with appropriately labeled secondary antibodies for 1 hr at room temperature and washed again. Fluorescence imaging and quantitation was performed using a LI-COR Odyssey. Results was analyzed using GraphPad Prism 7 software.

SMILES | ERBB2 degradation [1] | EC50 [2] [nM] | EC50 [3] [nM] | IC50 [4] [nM] | MAPK7 degradation (30 nM) [5] | MAPK7 degradation (100 nM) [5] | MAPK7 degradation (1000 nM) [5] | MAPK7 degradation (300 nM) [5]
CCOc1cc(N2CCC(C(=O)N3CCC(CN4CCN(Cc5ccc(-n6c(C(=O)NCC(F)(F)F)nnc6-c6cc(C)c(O)cc6O)cc5)CC4)CC3)CC2)ccc1Nc1ncc2c(n1)N(C)c1ccccc1C(=O)N2C [Compound 018, 5-(2,4-dihydroxy-5-methylphenyl)-4-(4-((4-((1-(1-(4-((5,11-dimethyl-6-oxo-6,11-dihydro-5H-benzo[e]pyrimido[5,4-b][1,4]diazepin-2-yl)amino)-3-ethoxyphenyl)piperidine-4-carbonyl)piperidin-4-yl)methyl)piperazin-1-yl)methyl)phenyl)-N-(2,2,2-trifluoroethyl)-4H-1,2,4-triazole-3-carboxamide] | B (DC50 = 100-1000 nM) | < 100 | 100 to 1000 | 100 to 1000 | C (< 33% degradation) | C (< 33% degradation) | A (>66% degradation) | 
CCOc1cc(N2CCC(C(=O)N3CCC(CN4CCN(Cc5ccc(-n6c(O)nnc6-c6ccc(O)cc6O)cc5)CC4)CC3)CC2)ccc1Nc1ncc2c(n1)N(C)c1ccccc1C(=O)N2C [Compound 021, 2-((4-(4-(4-((4-(4-(3-(2,4-dihydroxyphenyl)-5-hydroxy-4H-1,2,4-triazol-4-yl)benzyl)piperazin-1-yl)methyl)piperidine-1-carbonyl)piperidin-1-yl)-2-ethoxyphenyl)amino)-5,11-dimethyl-5,11-dihydro-6H-benzo[e]pyrimido[5,4-b][1,4]diazepin-6-one] |  | 100 to 1000 | > 1000 | 100 to 1000 | C (< 33% degradation) | C (< 33% degradation) | C (< 33% degradation) | C (< 33% degradation)
CCOc1cc(N2CCC(C(=O)N3CCN(Cc4ccc(-n5c(O)nnc5-c5cc(C(C)C)c(O)cc5O)cc4)CC3)CC2)ccc1Nc1ncc2c(n1)N(C)c1ccccc1C(=O)N2C.Cl [Compound 043, 2-((4-(4-(4-(4-(3-(2,4-dihydroxy-5-isopropylphenyl)-5-hydroxy-4H-1,2,4-triazol-4-yl)benzyl)piperazine-1-carbonyl)piperidin-1-yl)-2-ethoxyphenyl)amino)-5,11-dimethyl-5,11-dihydro-6H-benzo[e]pyrimido[5,4-b][1,4]diazepin-6-one] | B (DC50 = 100-1000 nM) |  |  |  | C (< 33% degradation) | B (33-66% degradation) | A (>66% degradation) | A (>66% degradation)
CCOc1cc(N2CCC(C(=O)NCCOCCOc3ccc(Nc4ccc(-n5nc(C(F)(F)F)c6c5CC(C)(C)CC6=O)cc4C(N)=O)cc3)CC2)ccc1Nc1ncc2c(n1)N(C)c1ccccc1C(=O)N2C [Compound 065, N-(2-(2-(4-((2-carbamoyl-4-(6,6-dimethyl-4-oxo-3-(trifluoromethyl)-4,5,6,7-tetrahydro-1H-indazol-1-yl)phenyl)amino)phenoxy)ethoxy)ethyl)-1-(4-((5,11-dimethyl-6-oxo-6,11-dihydro-5H-benzo[e]pyrimido[5,4-b][1,4]diazepin-2-yl)amino)-3-ethoxyphenyl)piperidine-4-carboxamide] | C (DC50 > 1000 nM) | > 1000 | > 1000 | > 1000 |  |  |  | 
CCOc1cc(N2CCC(C(=O)N3CCC(CN4CCN(CCCOc5ccc(Nc6ccc(-n7nc(C(F)(F)F)c8c7CC(C)(C)CC8=O)cc6C(N)=O)cc5)CC4)CC3)CC2)ccc1Nc1ncc2c(n1)N(C)c1ccccc1C(=O)N2C [Compound 066] | C (DC50 > 1000 nM) | > 1000 | > 1000 | > 1000 |  |  |  | 
CCOc1cc(N2CCC(C(=O)N3CCC(CN4CCN(Cc5ccc(-n6c(O)nnc6-c6cc(CC)c(O)cc6O)cc5)CC4)CC3)CC2)ccc1Nc1ncc2c(n1)N(S(C)(=O)=O)c1ccccc1C(=O)N2C [Compound 070, 2-((2-ethoxy-4-(4-(4-((4-(4-(3-(5-ethyl-2,4-dihydroxyphenyl)-5-hydroxy-4H-1,2,4-triazol-4-yl)benzyl)piperazin-1-yl)methyl)piperidine-1-carbonyl)piperidin-1-yl)phenyl)amino)-5-methyl-11-(methylsulfonyl)-5,11-dihydro-6H-benzo[e]pyrimido[5,4-b][1,4]diazepin-6-one] | B (DC50 = 100-1000 nM) | < 100 | 100 to 1000 | 100 to 1000 |  |  |  | 
CCOc1cc(N2CCC(C(=O)N3CCC(CN4CCN(Cc5ccc(-n6c(C(=O)NC7CC7)nnc6-c6cc(CC)c(O)cc6O)cc5)CC4)CC3)CC2)ccc1Nc1ncc2c(n1)N(S(C)(=O)=O)c1ccccc1C(=O)N2C [Compound 075, N-cyclopropyl-4-(4-((4-((1-(1-(3-ethoxy-4-((5-methyl-11-(methylsulfonyl)-6-oxo-6,11-dihydro-5H-benzo[e]pyrimido[5,4-b][1,4]diazepin-2-yl)amino)phenyl)piperidine-4-carbonyl)piperidin-4-yl)methyl)piperazin-1-yl)methyl)phenyl)-5-(5-ethyl-2,4-dihydroxyphenyl)-4H-1,2,4-triazole-3-carboxamide] | B (DC50 = 100-1000 nM) | < 100 | < 100 | < 100 |  |  |  | 
CCOc1cc(N2CCC(C(=O)N3CCC(CN4CCN(Cc5ccc(-n6c(C(=O)NC(C)C)nnc6-c6cc(CC)c(O)cc6O)cc5)CC4)CC3)CC2)ccc1Nc1ncc2c(n1)N(S(C)(=O)=O)c1ccccc1C(=O)N2C [Compound 098, 4-(4-((4-((1-(1-(3-ethoxy-4-((5-methyl-11-(methylsulfonyl)-6-oxo-6,11-dihydro-5H-benzo[e]pyrimido[5,4-b][1,4]diazepin-2-yl)amino)phenyl)piperidine-4-carbonyl)piperidin-4-yl)methyl)piperazin-1-yl)methyl)phenyl)-5-(5-ethyl-2,4-dihydroxyphenyl)-N-isopropyl-4H-1,2,4-triazole-3-carboxamide] | B (DC50 = 100-1000 nM) | < 100 | < 100 | < 100 |  |  |  | 
CCOc1cc(N2CCC(C(=O)N3CCC(CN4CCN(Cc5ccc(-n6c(C(=O)N[C@H](C)C(F)(F)F)nnc6-c6cc(CC)c(O)cc6O)cc5)CC4)CC3)CC2)ccc1Nc1ncc2c(n1)N(S(C)(=O)=O)c1ccccc1C(=O)N2C [Compound 123, (R)-4-(4-((4-((1-(1-(3-ethoxy-4-((5-methyl-11-(methylsulfonyl)-6-oxo-6,11-dihydro-5H-benzo[e]pyrimido[5,4-b][1,4]diazepin-2-yl)amino)phenyl)piperidine-4-carbonyl)piperidin-4-yl)methyl)piperazin-1-yl)methyl)phenyl)-5-(5-ethyl-2,4-dihydroxyphenyl)-N-(1,1,1-trifluoropropan-2-yl)-4H-1,2,4-triazole-3-carboxamide] | B (DC50 = 100-1000 nM) | < 100 | 100 to 1000 | 100 to 1000 |  |  |  | 
CCOc1cc(N2CCC(C(=O)N3CCC(CN4CCN(Cc5ccc(-n6c(C(=O)N[C@@H](C)C(F)(F)F)nnc6-c6cc(CC)c(O)cc6O)cc5)CC4)CC3)CC2)ccc1Nc1ncc2c(n1)N(S(C)(=O)=O)c1ccccc1C(=O)N2C [Compound 124, (S)-4-(4-((4-((1-(1-(3-ethoxy-4-((5-methyl-11-(methylsulfonyl)-6-oxo-6,11-dihydro-5H-benzo[e]pyrimido[5,4-b][1,4]diazepin-2-yl)amino)phenyl)piperidine-4-carbonyl)piperidin-4-yl)methyl)piperazin-1-yl)methyl)phenyl)-5-(5-ethyl-2,4-dihydroxyphenyl)-N-(1,1,1-trifluoropropan-2-yl)-4H-1,2,4-triazole-3-carboxamide] | B (DC50 = 100-1000 nM) | < 100 | 100 to 1000 | 100 to 1000 |  |  |  | 
